Here are results for one compound from US9463251B2, “Anti-ETBR antibodies and immunoconjugates” (Genentech, Inc., priority 2012, dated 2016).

The EC50 is the concentration at which the effect is half-maximal.

Common to all, as to type: cell-based
Common to all, as to details: five days, read-out: EC50 (free linker-drug, without antibody)

For assay [1], the system named is In vitro-derived resistant UACC-257X2.2 cells. The assay is described as follows: In vitro cell proliferation (CellTiter-Glo), in vitro-derived resistant cells. As for the experimental part:
For resistance developed in vitro, UACC-257X2.2 cells were adapted to increasing concentrations of anti-ETBR-vc-MMAE in culture dishes over the course of two months.
(§1) In vivo- and in vitro-derived resistant UACC-257X2.2 cells were then assayed for sensitivity to increasing concentrations of anti-ETBR-vc-MMAE.
(§2) In vitro cell proliferation of the cell lines in the presence of the immunoconjugates was assessed. Cells were plated at 1,500 cells per well in 50 μL of normal growth medium in 96-well clear-bottom plates. Twenty-four hours later, an additional 50 μL of culture medium with serial dilutions of immunoconjugates (ch5E9-vc-MMAE or control anti-gD-vc-MMAE) were added to triplicate wells. Five days later, cell survival was determined using CellTiter-Glo Luminescent Cell Viability Reagent (G7572, Promega Corporation, Madison, Wis.) using an EnVision 2101 Mutilabel Reader (Perkin-Elmer, Waltham, Mass.).
For orientation: In ATP-based viability assays light output follows the ATP content of the culture.

In assay [2] the test system is In vivo-derived resistant UACC-257X2.2 cells. In words: In vitro cell proliferation (CellTiter-Glo), in vivo-derived resistant cells. As for the experimental part:
Tumor #359 was harvested and the cells were dissociated for growth in vitro (referred to herein as in vivo-derived resistant UACC-257X2.2 cells).
as §1, §2

Assay [3] concerns Parental UACC-257X2.2 cells. In words: In vitro cell proliferation (CellTiter-Glo), parental cells. The procedure: as §2

Starred links: 1 amine or outer side, 2 acyl side, 3 side chain; linkers in the order of their positions; H or OH if unused. Non-standard residues stand in square brackets, D forms with d. Residues, ends and D or L forms follow the SMILES beside them. *: point of attachment. Dolaproine = CO[C@@H]([C@@H]1CCCN1)[C@@H](C)C(=O)O; Hexanoyl(6-maleimido) = O=C1C=CC(=O)N1CCCCCC(=O)*; Dil = CC[C@H](C)[C@H](NC)[C@@H](CC(=O)O)OC; PABC = O=C(OCc1ccc(N[*:1])cc1)[*:2]; X1 = C[C@@H](N*)[C@@H](O)c1ccccc1; Cit = NC(=O)NCCC[C@H](N)C(=O)O; NMeV = CN[C@H](C(=O)O)C(C)C

For the compound `CC[C@H](C)[C@@H]([C@@H](CC(=O)N1CCC[C@H]1[C@H](OC)[C@@H](C)C(=O)N[C@H](C)[C@@H](O)c1ccccc1)OC)N(C)C(=O)[C@@H](NC(=O)[C@H](C(C)C)N(C)C(=O)OCc1ccc(NC(=O)[C@H](CCCNC(N)=O)NC(=O)[C@@H](NC(=O)CCCCCN2C(=O)C=CC2=O)C(C)C)cc1)C(C)C` [MC-vc-PAB-MMAE] ({Hexanoyl(6-maleimido)}-V[Cit][PABC][NMeV]V[Dil][Dolaproine]-X1), the EC50 in assay [1] is 3.5 nM; in assay [2], 0.77 nM; in assay [3] it was 0.28 nM.
